In publication PMC7037636, “Synthesis of New Series of 2-C-(β-D-glucopyranosyl)-Pyrimidines and Their Evaluation as Inhibitors of Some Glycoenzymes” (Molecules, 2020):

Target: T1, bovine liver β-galactosidase
T1 construct: gene GLB1; commercial native enzyme from bovine liver (Sigma-Aldrich)
Assay: PNP-β-Gal hydrolysis, absorbance at […] nm
Format: biochemical, Bos taurus
Conditions: 1 mM PNP-β-Gal, citrate-phosphate buffer pH 7.3, 37 °C, 0.12 mg/mL enzyme; read-out: Inh.

IC50: 294 ± 50 µM
SMILES: CCOC(=O)c1c(-c2ccccc2)nc([C@@H]2O[C@H](CO)[C@@H](O)[C@H](O)[C@H]2O)[nH]c1=O [11h, Ethyl 2-(β-D-glucopyranosyl)-4-phenyl-6-oxo-1,6-dihydropyrimidine-5-carboxylate]
